Results published in patent publication US8242152B2, “Use of 4-[(4-thiazolyl)phenoxy]alkoxy-benzamidine derivatives for the prophylaxis and treatment of osteoporosis” (Dong Wha Pharmaceutical Co., Ltd., priority 2001, dated 2012).
“And” between values parts separate entries of the source, which are not always exact repeats. Equal entries are not always repeated.

Experiments:
[1] = test system: sciatic nerve neurectomized ddY mice; assay: Prophylactic effects in neurectomized ddY mouse model (immobilization osteoporosis); type: in vivo; details: for TBV (%): epiphyseal regions of right tibia; for Cbt (um): mid-shaft regions of right tibia; for histological profiles of epiphyseal regions: FIG. 10, Hematoxylin-Eosin; for TBV % compared to control group (in words) / cortical bone thickness compared to control group (in words): right tibia, Fosamax 1 mg/kg, DW1350MSA 10 and 50 mg/kg
Text: The effects of a drug would be based on histomorphometric changes of trabecular bone and thickness of cortical bone in this model.
The objective of the present study is to observe the anti-osteoporotic potential of DW1350MSA, and administration of the drug was initiated 2 days after neurectomy for prophylaxis study.
(§1) Twenty-five female ddY mice (6-wk old upon receipt, SLC, Japan) were used after acclimatization for 7 days. Animals were allocated to 5 per polycarbonate cage in a temperature (20-25° C.) and humidity (30-35%) controlled room. Light:dark cycle was 12 hr:12 hr and feed (Samyang, Korea) and water were supplied free to access. 20 mice were neurectomized and 5 mice were sham operated. For the prophylaxis study, treatment was initiated 2 days after neurectomy and then each sample was administrated for 4 weeks.
DW1350MSA was dissolved in injectable distilled water and administered at a dosage volume of 10 ml/kg by oral gavage. The administered dose and schedule of these drugs are shown as Table 12.
3) Operation • A. Sham operation: The right side of the sciatic nerve was exposed by incision of skin and hip muscles, (about 1 cm) after that closed by skin suture. • B. neurectomy: After exposure of the right side of the sciatic nerve, about 1 mm of sciatic nerve was removed. After that closed by routine methods. • C. Operation was conducted under Ketamine hydrochloride (M.W.=256.8; 23076-35-9, ICN Biochemicals Inc., USA) and Xylazine hydrochloride (M.W.=274.19; 116-00512, Wako Pure Chemical Industries Ltd., Japan) anesthesia.
After that, embedded in paraffin, sectioned (3˜4 um) and stained with hematoxylin-eosin strain.
Mid-shaft cortical bone of tibia, and trabecular bone volume % of tibia were evaluated. In addition, histological profiles of epiphyseal regions of right tibia and femur were also observed. • A. Measurement of trabecular bone volume (TBV) Trabecular bone volume was calculated using automated image analysis (analySIS Image Processing; SIS, Germany) under magnification […] (×200) of microscopy (Zeiss, Germany) in the uniform area of epiphyseal regions of the right tibia and/or femur (growth plate regions were excluded). Trabecular bone volume was calculated as percentage levels. • B. Thickness of cortical bone (Cbt): Cortical bone thickness was detected in mid-shaft regions of right tibia and/or femur, and they were calculated using an automated image analyzer (analysis Image Processing; SIS, Germany) under magnification 200 (×200) of microscopy (Zeiss, Germany) at prepared histological samples. The thickness was detected as um levels. • C.
(§2) All data was calculated as mean±S.D. Statistical analyses was conducted using Mann-Whitney U-Wilcoxon Rank Sum W test (M-W test) with SPSS for Windows (Release 6.1.3., SPSS Inc., USA).

ovariectomized ddY mice = assay: Prophylactic effects in ovariectomized ddY mouse model (estrogen-deficient osteoporosis); type: in vivo; details: for histological profiles of epiphyseal regions of right tibia and femur: FIG. 11
Description: The effects of a drug would be based on histomorphometric changes of trabecular bone and thickness cortical bone in this model.
The objective of present study is to observe the prophylactic effect of DW1350MSA, and administration of drug was initiated 3 days after ovariectomy for prophylaxis study.
as §1, with “allocated” for “allocated to”, “were ovariectomized” for “were neurectomized”, “For” for “For the”, “initiated 3” for “initiated 2”, “after ovariectomy” for “after neurectomy”, “for 6” for “for 4”
DW1350MSA was dissolved in injectable distilled water and administered at a dosage volume of 10 ml/kg by oral gavage.
3) Operation • A. Sham operation: Bilateral ovaries were exposed by incision of skin and abdominal muscles, (about 3 cm) after that closed by skin suture. • B. Ovariectomy: After exposure of bilateral ovaries, they were removed. After that closed by routine methods. • C. Operation was conduct under Ketamine hydrochloride (M.W.=256.8; 23076-35-9, ICN Biochemicals Inc., USA) and Xylazine hydrochloride (M.W.=274.19; 116-00512, Wako Pure Chemical Industries Ltd., Japan) anesthesia.
After that, embedded in paraffin, sectioned (3˜4 um) and stained with hematoxylin-eosin stain.
Histomorphometric changes of tibia and femur were evaluated. All histomorphometric indices including trabecular bone volume (TBV, %), thickness of trabecular bone (Tbt), trabecular bone number (Tbn), and length of trabeculer bone (Tbl) were calculated using automated image analysis (analysis Image Processing; SIS, Germany) under magnification 200 (×200) of microscopy (Zeiss, Germany) in the epiphyseal regions of right tibia and/or femur. In addition, cortical bone thickness (Cbt) was measured in mid-shaft region of right tibia and femur. […] Trabecular bone volume was calculated as percentage levels. • B. Measurement of histomorphometric index of trabecular bone: Thickness of trabecular bone (Tbt), trabecular bone number (Tbn), and length of trabecular bone (Tbl) were calculated using automated image analysis in the epiphyseal regions of right tibia and/or femur. Tbt and Tbl were calculated as um levels, and Tbn were calculated as number/whole sectional part of epiphyseal regions levels. • C. Thickness of cortical bone (Cbt): Cortical bone thickness was detected in mid-shaft regions of right tibia and/or femur, and they were calculated using automated image analyzer at prepared histological samples.
as §2

rabbit osteoclasts = assay: TRAP(+) MNC formation in isolated rabbit osteoclast cultures, single treatment without LTB4 (Example 6); type: cell-based; details: 100 nM LTB4, 48 hours, dentin slices
Description: Rabbit osteoclasts were isolated as described by Victoria Tai's report (Doctoral Dissertation, 1997, Graduate Department of Pharmacology, University of Toronto) and Rraser P. Coxon et al. (Methods in Molecular Medicine, vol 80). Neonatal rabbits (New Zealand White) were sacrificed by ether-inhaling method under a hood. The removed long bones were dissected free of attached soft tissues and placed into ice-cold PBS. The long bones were cut longitudinally and mechanically curetted in 10 ml medium 199 with antibiotics (10 ug/ml penicillin G and 50 ug/ml gentamycin) in a glass Petri dish. Each bone was curetted with a scalpel blade and was finely minced. The fragments were then vigorously agitated by pipetting up and down using a pasteur pipette and vortex-mixed for 30 seconds. The fragments were allowed to settle and the cell suspension was then transferred to a 50 ml tube and the previous step repeated three times to a total volume of 40 ml. The bone fragments were allowed to settle (>1 min). The cell suspension was then transferred to a new 50 ml tube, passed through a 40 um cell strainer and centrifuged at 200 g for 8 minutes. The supernatant was removed and the pellet was immediately resuspended in α-MEM with 2% FBS (bicarbonate buffered medium).
40 uL droplets of osteoclast-containing suspensions were plated onto 60 mm tissue culture plastic dishes or on dentine slices in 96-well microtiter plates in 2% medium. The cells were allowed ninety minutes for attachment before the addition of 2 mL α-MEM with 2% FBS. After 24 hr culture, cells were washed to remove non-adherent cells and replaced with fresh medium as describes below.
After 24 hr in culture, the medium was replaced with fresh medium containing control, LTB4 receptor antagonists (1000 nM), DW1350 (10, 100 and 1000 nM) or LTB4 (100 nM) and the cultures were continued for an additional 48 hrs.
All cells were cultured at 37° C. in a humidified atmosphere of 95% air and 5% CO2 in bicarbonate buffered medium at pH 7.4.
Differentiated osteoclasts are multinucleated cells and have specific enzyme activity, such as ‘tartrate-resistant acid phosphatase (TRAP)’. Therefore, Osteoclast formation was determined by counting the number of TRAP-positive multinucleated cells (TRAP(+) MNCs).
After culture, the cells were fixed with 10% neutral buffered formalin for 30 min at 4° C., washed twice in distilled water and stained for TRAP activity by incubating with substrate. The number of TRAP(+)MNC with more than 2 nuclei was counted under photomicroscope.
Results were expressed as mean number of TRAP(+)MNC±SD of All experiments were done at least twice. Statistical analysis was performed for each experiment by student t-test.

[2] = 10 mg/kg oral once a day for 4 weeks
[3] = 50 mg/kg oral once a day for 4 weeks
[4] = right femur, 10 mg/kg oral once a day for 6 weeks (F10, D10)
[5] = right femur, 50 mg/kg oral once a day for 6 weeks (D50)
[6] = right tibia, 10 mg/kg oral once a day for 6 weeks (F10, D10)
[7] = right tibia, 50 mg/kg oral once a day for 6 weeks (D50)
[8] = tibia and femur, DW1350MSA 10 and 50 mg/kg, Fosamax 10 mg/kg
[9] = 1 mg/kg oral once a day for 4 weeks

CS(=O)(=O)O.Cc1nc(-c2ccc(OCCCCCOc3ccc(C(N)=NO)cc3)cc2)c(C(C)C)s1 [DW1350MSA]
TBV (%) [1, 2]: 25.75 ± 2.87 # %
Cbt (um) [1, 2]: 171.36 ± 18.60 # um
TBV (%) [1, 3]: 33.29 ± 4.96 %
Cbt (um) [1, 3]: 193.87 ± 12.50 um
histological profiles of epiphyseal regions [1]: relatively well developed, especially in width and number, trabecular bone was detected
TBV % compared to control group (in words) [1]: significant dose-dependent (p<0.01) increase of trabecular bone volume %
cortical bone thickness compared to control group (in words) [1]: significant dose-dependent (p<0.01) increase of cortical bone thickness
histological profiles of epiphyseal regions of right tibia and femur (ovariectomized ddY mice): relatively well developed, especially in width and length, trabecular bone was detected
Cbt, cortical bone thickness (ovariectomized ddY mice; [4]): 118.00 ± 16.79 um
Ocn, osteoclast cell number (ovariectomized ddY mice; [4]): 5.00 ± 1.58 number
TBV, trabecular bone volume (ovariectomized ddY mice; [4]): 36.97 ± 9.59 # %
Tbl, trabecular bone length (ovariectomized ddY mice; [4]): 635.60 ± 190.76 um
Tbn, trabecular bone number (ovariectomized ddY mice; [4]): 19.00 ± 1.58 number/epiphyseal
Tbt, trabecular bone thickness (ovariectomized ddY mice; [4]): 48.60 ± 10.50 ## um
Cbt, cortical bone thickness (ovariectomized ddY mice; [5]): 140.26 ± 33.16 um
Ocn, osteoclast cell number (ovariectomized ddY mice; [5]): 4.40 ± 1.34 number
TBV, trabecular bone volume (ovariectomized ddY mice; [5]): 41.91 ± 6.04 # %
Tbl, trabecular bone length (ovariectomized ddY mice; [5]): 743.40 ± 187.00 um
Tbn, trabecular bone number (ovariectomized ddY mice; [5]): 21.80 ± 1.92 number/epiphyseal
Tbt, trabecular bone thickness (ovariectomized ddY mice; [5]): 68.00 ± 21.41 um
Cbt, cortical bone thickness (ovariectomized ddY mice; [6]): 136.80 ± 26.58 # um
Ocn, osteoclast cell number (ovariectomized ddY mice; [6]): 5.40 ± 1.52 # number
TBV, trabecular bone volume (ovariectomized ddY mice; [6]): 35.20 ± 4.90 # %
Tbl, trabecular bone length (ovariectomized ddY mice; [6]): 605.00 ± 160.44 ## um
Tbn, trabecular bone number (ovariectomized ddY mice; [6]): 11.80 ± 3.11 # number/epiphyseal
Tbt, trabecular bone thickness (ovariectomized ddY mice; [6]): 60.80 ± 13.20 # um
Cbt, cortical bone thickness (ovariectomized ddY mice; [7]): 170.40 ± 44.73 um
Ocn, osteoclast cell number (ovariectomized ddY mice; [7]): 3.60 ± 1.14 # number
TBV, trabecular bone volume (ovariectomized ddY mice; [7]): 38.42 ± 4.67 # %
Tbl, trabecular bone length (ovariectomized ddY mice; [7]): 679.20 ± 249.47 um
Tbn, trabecular bone number (ovariectomized ddY mice; [7]): 11.80 ± 3.96 # number/epiphyseal
Tbt, trabecular bone thickness (ovariectomized ddY mice; [7]): 112.60 ± 45.76 um
effect on decrease of Cbt induced by ovariectomy (summary in words) (ovariectomized ddY mice; [8]): significant effect to inhibit the decrease of Cbt induced by ovariectomy and the efficacy was higher than that of Fosamax
effect on decrease of TBV induced by ovariectomy (summary in words) (ovariectomized ddY mice; [8]): some significance effect to inhibit the decrease of TBV induced by ovariectomy but the efficacy was somewhat lower than that of Fosamax
effect on decrease of Tbl induced by ovariectomy (summary in words) (ovariectomized ddY mice; [8]): significant effect to inhibit the decrease of Tbl induced by ovariectomy and the efficacy was somewhat higher than that of Fosamax
effect on decrease of Tbn induced by ovariectomy (summary in words) (ovariectomized ddY mice; [8]): significance effect to inhibit the decrease of Tbn induced by ovariectomy and the efficacy was somewhat lower than that of Fosamax
effect on decrease of Tbt induced by ovariectomy (summary in words) (ovariectomized ddY mice; [8]): significance effect to inhibit the decrease of Tbt induced by ovariectomy and the efficacy was somewhat higher than that of Fosamax
effect on increase of Ocn induced by ovariectomy (summary in words) (ovariectomized ddY mice; [8]): significant effect to inhibit the increase of Ocn induced by ovariectomy and the efficacy was higher than that of Fosamax

NCCCC(O)(P(=O)(O)O)P(=O)(O)O [Fosamax, Alendronate]
TBV (%) [1, 9]: 21.81 ± 4.35 # %
Cbt (um) [1, 9]: 125.75 ± 36.01 um
histological profiles of epiphyseal regions [1]: more numerous extended trabecular bones were demonstrated compared to that of Control group
TBV % compared to control group (in words) [1]: significantly (p<0.01) increased compared to that of the control group
cortical bone thickness compared to control group (in words) [1]: significantly increased compared to that of the control group but significances were not demonstrated
histological profiles of epiphyseal regions of right tibia and femur (ovariectomized ddY mice): more numerous extended trabecular bones were demonstrated compared to that of Control
Cbt, cortical bone thickness (ovariectomized ddY mice; [4]): 53.00 ± 23.82 um
TBV, trabecular bone volume (ovariectomized ddY mice; [4]): 58.26 ± 5.77 %
Tbl, trabecular bone length (ovariectomized ddY mice; [4]): 460.80 ± 260.64 ## um
Tbn, trabecular bone number (ovariectomized ddY mice; [4]): 23.60 ± 2.97 # number/epiphyseal
Tbt, trabecular bone thickness (ovariectomized ddY mice; [4]): 33.00 ± 12.45 um
Cbt, cortical bone thickness (ovariectomized ddY mice; [6]): 59.80 ± 15.55 um
TBV, trabecular bone volume (ovariectomized ddY mice; [6]): 47.56 ± 7.23 # %
Tbl, trabecular bone length (ovariectomized ddY mice; [6]): 550.00 ± 74.98 ## um
Tbn, trabecular bone number (ovariectomized ddY mice; [6]): 12.60 ± 4.98 number/epiphyseal
Tbt, trabecular bone thickness (ovariectomized ddY mice; [6]): 83.20 ± 39.86 # um
effect on decrease of Cbt induced by ovariectomy (summary in words) (ovariectomized ddY mice; [8]): no favorable effect to changes of Cbt
effect on increase of Ocn induced by ovariectomy (summary in words) (ovariectomized ddY mice; [8]): no favorable effect to changes of Ocn

CCCCC/C=C\C[C@@H](O)/C=C/C=C/C=C\[C@@H](O)CCCC(=O)O [LTB4, leukotriene-B4]
increase in the number of TRAP-positive osteoclasts compared to the control group (rabbit osteoclasts): 30˜40% and 40%
